Measurements as given in the NIST ThermoML archive (doi:10.1016/j.jct.2016.12.033).
± gives the expanded uncertainty stated by the source.

Legend:
[1] = mn = molality of the nth substance listed, in mol/kg; settings: 101.3 kPa, Liquid, m2 = 0; for viscosity: Capillary tube (Ostwald / Ubbelohde) method; for mass density: Pycnometric method
[2] = 101.3 kPa, Liquid; for viscosity: Capillary tube (Ostwald / Ubbelohde) method; for mass density: Pycnometric method

viscosity ([1]; 275.15 K) [mPa·s]	mass density ([1]; 275.15 K) [kg/m3]	viscosity ([1]; 277.15 K) [mPa·s]	mass density ([1]; 277.15 K) [kg/m3]	viscosity ([1]; 279.15 K) [mPa·s]	mass density ([1]; 279.15 K) [kg/m3]	viscosity ([2]; 275.15 K) [mPa·s]	mass density ([2]; 275.15 K) [kg/m3]	viscosity ([2]; 277.15 K) [mPa·s]	mass density ([2]; 277.15 K) [kg/m3]	viscosity ([2]; 279.15 K) [mPa·s]	mass density ([2]; 279.15 K) [kg/m3]	SMILES
1.674 ± 0.035	999.94 ± 0.28	1.567 ± 0.032	999.97 ± 0.28	1.472 ± 0.03	999.94 ± 0.27	–	–	–	–	–	–	O [water] + Cc1ncc(CO)c(CO)c1O.Cl
1.674 ± 0.035	999.94 ± 0.28	1.567 ± 0.032	999.97 ± 0.28	1.472 ± 0.03	999.94 ± 0.28	–	–	–	–	–	–	O [water] + Cc1ncc(C[n+]2csc(CCO)c2C)c(N)n1.Cl.[Cl-]
–	–	–	–	–	–	1.674 ± 0.035	999.94 ± 0.28	1.567 ± 0.032	999.97 ± 0.28	1.472 ± 0.03	999.94 ± 0.28	O [water]
1.674 ± 0.035	999.94 ± 0.29	1.567 ± 0.032	999.97 ± 0.28	1.472 ± 0.03	999.94 ± 0.28	–	–	–	–	–	–	O [water] + O=C1O[C@H]([C@@H](O)CO)C([O-])=C1O.[Na+]
